{
  "source": "patent US20230352136A1",
  "about": "“SYSTEMS AND METHODS TO EVALUATE DRUG-INDUCED GASTROINTESTINAL DYSRHYTHMIA” (The Chinese University of Hong Kong, priority 2022, published 2023)",
  "key": {"[1]": {"test_system": "duodenum pacemaker potentials", "experiment": "MEA recording of pacemaker potentials (slow waves), isolated duodenum", "type": "cell-based, Suncus murinus", "conditions": "for amplitude of slow waves: duodenum", "description": "(§1) Pacemaker potentials were recorded extracellularly on a 60-channel MEA system using full-thickness GI segments isolated from Suncus murinus. Basic slow-wave parameters, including frequency, amplitude, slope, period, and power partitions, were derived. Signal regularity was also evaluated using detrended fluctuation analysis and sample entropy analysis.\n(§2) Electrical recordings were taken after the animals were euthanised by carbon dioxide asphyxiation. […] The mesentery was removed, and the lumen contents were flushed with Krebs' medium. Segments (−1 cm) of duodenum, ileum, and colon were then isolated, but the stomach was kept intact. All tissue segments and the entire stomach were incubated in Krebs' medium containing nifedipine (1 μM; Sigma Aldrich, St Louis, MO, USA) for 15 min to inhibit smooth muscle activity. Pacemaker potentials were recorded using an MEA platform (MEA1060 1200×; Multichannel Systems, Reutlingen, Germany) as previously described. Briefly, tissues were placed onto the electrode field of an MEA chip (60-channel, 8×8 configuration, 3D-tip-shaped electrodes with a height of […] and an inter-electrode distance of 200 μm; Ayanda Biosystems SA, Lausanne, Switzerland). Intestinal segments were aligned horizontally to the recording electrode field, while the stomach was oriented with the antrum facing the recording electrode field. The chamber temperature was maintained at 37° C. and the sampling frequency was 1 kHz. […] All data were recorded and saved using MC_Rack (v 4.6.2, Multichannel Systems).\n(§3) Data analysis included basic slow-wave feature extraction using a custom automated program. […] The time point of drug administration was automatically identified based on the signal disturbance. The period of signal disturbance (20 s before and 40 s after the peak of the disturbance) was excluded from the analysis. Data were filtered using a passband between 0.1 Hz and 1 Hz and a stopband between 0.01 Hz and 2 Hz. The basic slow-wave features extracted were similar to those extracted in the inventors' previous studies. However, instead of using several templates and scripts written in Microsoft Excel and Spike 2, a one-step automatic and blinded MATLAB programme was used for data analysis. There were four major changes to the data analysis process as compared to the inventors' previous studies. First, auto-identification of the drug disturbance time point was used, rather than manual identification. Second, standardised signal filters were built in MATLAB to match the entire data analysis pipeline. […] Frequency partitioning was performed by segmenting the power spectrum of 0-50 cpm into the following four segments: brady-rhythm (within the range 2-[DF−1] cpm), normal-rhythm ([DF±1] cpm), tachy-rhythm (within the range [DF+1]-40 cpm), and out-of-range frequencies (<2 cpm and >40 cpm). Third, waveforms were identified using the MATLAB ‘findpeaks’ function, with a minimum peak height of […] at baseline and […] after drug treatment, with a step time of 5.4 s for the intestine and 12 s for the stomach. The average peak-to-peak amplitude, slope, and period were derived for all detected waveforms. Fourth, propagation velocity was derived using phase-difference measurements, based on the auto-select seed electrode with the highest percentage of normal rhythms.\n(§4) Dominant activation pattern identification included a phase-based analysis performed as previously described (Liu et al., 2021). Briefly, high-frequency spikes with amplitudes greater than […] were masked. Continuous frequencies were identified using continuous wavelet transformation, and the transformed data were used to plot spectrograms. […] High quality data were subjected to Hilbert transformation to identify the phase and frequency of the signals. Individual activation times were clustered using k-means clustering every 20 s and major activation patterns were grouped using a structural similarity index."}, "[2]": {"test_system": "stomach pacemaker potentials", "experiment": "MEA recording of pacemaker potentials (slow waves), isolated stomach", "type": "cell-based, Suncus murinus", "conditions": "100 μM", "description": "as §1, §2, §3, §4"}, "[3]": {"conditions": "duodenal tissues, 0.1-100 μM, p>0.05, n=5-9"}},
  "data": [
    {"smiles": "Cl.NCCc1ccc(O)c(O)c1", "note": "[dopamine, 3-Hydroxytyramine hydrochloride]", "values": [
      {"measurement": "waveform period", "setting": "[1]; duodenal tissues, 100 nM, baseline 2.52±0.21, p<0.05, n=7", "value": "3.27 ± 0.47", "unit": "s"},
      {"measurement": "DFA fluctuation function (smaller scale 3-25)", "setting": "[1]; duodenal tissues, 100 nM, baseline 2.65±0.08, p<0.01, n=6", "value": "2.51±0.05"},
      {"measurement": "percentage of tachy-rhythms", "setting": "[1]; duodenal tissues, 100 nM, baseline 12.5±5.7, p<0.05, n=7", "value": "2.1±0.7", "unit": "%"},
      {"measurement": "percentage of dominant baseline activation patterns, second pattern", "setting": "[1]; duodenal tissues, 100 nM, baseline 23.3±5.7, p<0.05, n=7", "value": "8.4±11.2", "unit": "%"},
      {"measurement": "average frequency (AF)", "setting": "[1]; duodenal tissues, 100 nM, baseline 24.1±2.0, p<0.05, n=7", "value": "20.9±0.7", "unit": "cpm"},
      {"measurement": "dominant frequency (DF) of slow waves", "setting": "[1]; duodenal tissues, 100 nM, baseline 27.1±2.2, p<0.05, n=7", "value": "24.9±1.2", "unit": "cpm"},
      {"measurement": "percentage of dominant baseline activation patterns, first pattern", "setting": "[1]; duodenal tissues, 100 nM, baseline 32.3±11.8, p<0.01, n=7", "value": "11.1±13.0", "unit": "%"},
      {"measurement": "percentage of brady-rhythms", "setting": "[1]; duodenal tissues, 100 nM, baseline 35.7±10.3, p<0.0001, n=7", "value": "87.2±7.7", "unit": "%"},
      {"measurement": "percentage of normal rhythms", "setting": "[1]; duodenal tissues, 100 nM, baseline 46.1±11.2, p<0.001, n=7", "value": "4.8±4.6", "unit": "%"},
      {"measurement": "slope of waveforms", "setting": "[1]; duodenal tissues, 100 nM, baseline 321.7±95.5, p<0.01, n=7", "value": "166.9±57.7", "unit": "μV s^−1"},
      {"measurement": "DFA fluctuation function (larger scale 26-46)", "setting": "[1]; duodenal tissues, 100 nM, baseline […], p<0.01, n=6", "value": "1.98±0.11"},
      {"measurement": "DFA fluctuation function (larger scale 26-46)", "setting": "[1]; duodenal tissues, 1 μM, baseline 1.74±0.32, p<0.05, n=7", "value": "1.63±0.38"},
      {"measurement": "number of groups of activation patterns", "setting": "[1]; duodenal tissues, 1 μM, baseline 6.2±1.0, p<0.05, n=6", "value": "6.8±1.0"},
      {"measurement": "percentage of brady-rhythms", "setting": "[1]; duodenal tissues, 1 μM, baseline 25.8±12.3, p<0.05, n=6", "value": "53.7±26.6", "unit": "%"},
      {"measurement": "percentage of dominant baseline activation patterns, first pattern", "setting": "[1]; duodenal tissues, 1 μM, baseline 33.7±13.1, p<0.05, n=6", "value": "12.8±9.4", "unit": "%"},
      {"measurement": "representative spectrogram, effect on DF", "setting": "[1]; duodenal tissues, 10 μM", "value": "slightly shifted towards a lower frequency"},
      {"measurement": "wave fronts counted in representative spatio-temporal map (1 min)", "setting": "[1]; duodenal tissues, 10 μM, 30 before treatment", "value": 27},
      {"measurement": "average SampEn (smaller scale 1-5)", "setting": "[1]; duodenal tissues, 10 μM, baseline 0.58±0.05, p<0.05, n=7", "value": "0.60±0.04"},
      {"measurement": "number of groups of activation patterns", "setting": "[1]; duodenal tissues, 10 μM, baseline 5.9±0.7, p<0.05, n=9", "value": "6.4±0.5"},
      {"measurement": "percentage of dominant patterns (based on post-treatment data, FIG. 3E), second pattern", "setting": "[1]; duodenal tissues, 10 μM, baseline 10.2±9.1, p<0.05, n=5", "value": "18.5±2.3", "unit": "%"},
      {"measurement": "percentage of normal rhythms", "setting": "[1]; duodenal tissues, 10 μM, baseline 52.4±14.7, p<0.05, n=9", "value": "7.8±6.4", "unit": "%"},
      {"measurement": "slope of waveforms", "setting": "[1]; duodenal tissues, 10 μM, baseline 202.4±50.6, p<0.05, n=9", "value": "153.9±47.7", "unit": "μV s^−1"},
      {"measurement": "DFA fluctuation function (larger scale 26-46)", "setting": "[1]; duodenal tissues, 100 μM, baseline 1.46±0.29, p<0.05, n=9", "value": "1.36±0.31"},
      {"measurement": "waveform period", "setting": "[1]; duodenal tissues, 100 μM, baseline 2.44±0.72, p<0.05, n=5", "value": "3.26 ± 1.29", "unit": "s"},
      {"measurement": "percentage of dominant baseline activation patterns, third pattern", "setting": "[1]; duodenal tissues, 100 μM, baseline 15.2±2.1, p<0.05, n=4", "value": "5.9±3.6", "unit": "%"},
      {"measurement": "percentage of dominant patterns (based on post-treatment data, FIG. 3E), third pattern", "setting": "[1]; duodenal tissues, 100 μM, baseline 20.3±10.8, p<0.05, n=4", "value": "7.5±5.8", "unit": "%"},
      {"measurement": "average frequency (AF)", "setting": "[1]; duodenal tissues, 100 μM, baseline 25.1±3.7, p<0.05, n=5", "value": "22.2±5.4", "unit": "cpm"},
      {"measurement": "dominant frequency (DF) of slow waves", "setting": "[1]; duodenal tissues, 100 μM, baseline 28.6±4.1, p<0.05, n=5", "value": "26.3±5.2", "unit": "cpm"},
      {"measurement": "percentage of dominant baseline activation patterns, first pattern", "setting": "[1]; duodenal tissues, 100 μM, baseline 29.3±5.5, p<0.01, n=4", "value": "7.0±7.0", "unit": "%"},
      {"measurement": "percentage of brady-rhythms", "setting": "[1]; duodenal tissues, 100 μM, baseline 43.3±11.6, p<0.05, n=5", "value": "68.6±29.0", "unit": "%"},
      {"measurement": "slope of waveforms", "setting": "[1]; duodenal tissues, 100 μM, baseline 322.2±108.6, p<0.01, n=5", "value": "182.5±61.7", "unit": "μV s^−1"},
      {"measurement": "percentage of dominant baseline activation patterns, second pattern", "setting": "[1]; duodenal tissues, 100 μM, baseline […], p<0.05, n=4", "value": "7.4±4.1", "unit": "%"},
      {"measurement": "dominant power (DP), change vs baseline", "setting": "[1]; [3]", "value": "No significant differences"},
      {"measurement": "propagation velocities, effect", "setting": "[1]; [3]", "value": "did not affect"},
      {"measurement": "average SampEn (larger scale 6-50), effect", "setting": "[1]; duodenal tissues, 0.1-100 μM, p>0.05, n=6-9", "value": "did not change"},
      {"measurement": "DFA fluctuation function (smaller scale 3-25)", "setting": "[1]; duodenal tissues, 100 M, baseline 2.26±0.16, p<0.05, n=9", "value": "2.18±0.16"},
      {"measurement": "percentage of tachy-rhythms", "setting": "[1]; duodenal tissues, 100 M, baseline 11.0±5.2, p<0.05, n=5", "value": "5.4±4.9", "unit": "%"},
      {"measurement": "amplitude of slow waves", "setting": "[1]; 100 nM, baseline 193.0±54.9, p<0.01, n=7", "value": "114.1±37.7", "unit": "μV"},
      {"measurement": "amplitude of slow waves", "setting": "[1]; 10 μM, baseline 117.6±24.2, p<0.05, n=9", "value": "97.4±13.7", "unit": "μV"},
      {"measurement": "amplitude of slow waves", "setting": "[1]; 100 μM, baseline 199.3±60.5, p<0.01, n=5", "value": "121.1±27.3", "unit": "μV"},
      {"measurement": "representative spectrogram, effect", "setting": "[2]", "value": "reduced the DP of the DF"},
      {"measurement": "wave fronts counted in representative spatio-temporal map (1 min)", "setting": "[2]; 9 before treatment", "value": "~10"},
      {"measurement": "DFA fluctuation function (smaller scale 3-25)", "setting": "[2]; baseline 2.36±0.08, p<0.05, n=7", "value": "2.27±0.16"},
      {"measurement": "number of groups of activation patterns", "setting": "[2]; baseline 4.3±1.0, p<0.05, n=8", "value": "5.3±1.0"},
      {"measurement": "average frequency (AF)", "setting": "[2]; baseline 9.8±1.2, p<0.05, n=8", "value": "11.8±1.8", "unit": "cpm"}
    ]}
  ]
}
